Measured values from US20250108048A1, “STING AGONIST COMPOUNDS AND CONJUGATES” (SUTRO BIOPHARMA, INC., priority 2023, published 2025).
Read-outs that look alike come from different tables or passages of the source.

Columns and labels:
[1] = tested on: TROP2 positive NCI-H292 Cells; assay: Cytokine release from cancer cells (MSD); assay type: cell-based, human; conditions: 120 hours; for EC50: Homo sapiens
Method: The cell supernatant was collected and IP-10 and IL-6 released in the cell culture medium was measured using Streptavidin single spot 96 well plates, compatible human antibody pairs, and calibrating solutions commercially available from MesoScale Discovery. Raw data generated by the Meso Scale Discovery (MSD®) SQ120 plate reader was imported into MSD Discovery Workbench software. Unknown sample values were interpolated from standard curves by the software and imported into Graphpad Prism. Each cytokine level was fitted with non-linear regression analysis, using log (agonist) vs. response, variable slope, 4-parameter fit equation in GraphPad Prism.

NCI-H292 cells = assay: Immunogenic cell death markers (HMGB1 release, surface calreticulin); assay type: cell-based, human; conditions: 48 hours
Method: Immunogenic cell death elicited by the TROP2 ADC, iSAC, and exatecan were measured by cell surface translocate of calreticulin and release of HMGB1 in the cell culture supernatant. Briefly, TROP2 positive cell line NCI-H292 were seeded into a 96-well flat bottom plate 4 hours prior to the initialization of the assay. Test articles were formulated at a 2× starting concentration in cell culture medium, and samples were serial diluted (1:3) under sterile conditions and added onto the cells in duplicates. After incubation at 37° C. in a CO2 incubator for 48 hours, the cell supernatant was collected for measuring HMGB1 and the adherent cells were collected for calreticulin expression on the cell surface.
HMGB1 released in the supernatant was assessed via sandwich ELISA using mouse anti-human HMGB1 clone 2F6 (Sigma-Aldrich) as the capture, polyclonal rabbit anti-human HMGB1 (Abcam) as secondary, and polyclonal goat anti-rabbit IgG HRP as the detection antibody. The HMGB1 concentrations in the cell culture medium were calculated based a standard curve built on commercially available recombinant human HMGB1 (R&D Systems).
NCI-H292 cells were detached using Accutase (Innovative Cell Technologies) and viability was accessed using a 1:500 dilution of Zombie NIR viability dye. […] Surface calreticulin measures on the live cells were gathered using an Attune NXT Flow Cytometer (ThermoFisher Scientific) to obtain median fluorescence intensity values. All data were fitted with non-linear regression analysis, using log(agonist) vs. response, variable slope, 4 parameter fit equation using GraphPad Prism.

hSTING H232 [2] = target: T1, hSTING H232 (Homo sapiens, UniProt Q86WV6); assay: THP1-Dual KI-hSTING-H232 reporter assay (IRF pathway, secreted Lucia luciferase); assay type: cell-based; parameters: host or cells: THP1-Dual KI-hSTING-H232 (from THP1-Dual KO-STING); conditions: THP1-Dual KI-hSTING-H232 cells, 24 hours; read-out: Reporter assay EC50 (nM) THP-1-H232
hSTING-HAQ haplotype = target: T2, hSTING-HAQ haplotype (Homo sapiens, UniProt Q86WV6, G230A/H232R/R293Q/R71H); assay: THP-1-Dual reporter assay (endogenous hSTING-HAQ); assay type: cell-based; conditions: THP-1-Dual cells (hSTING-HAQ), 24 hours
T2 construct: host or cells: THP-1-Dual

hSTING-R232 = target: T3, hSTING-R232 (Homo sapiens, UniProt Q86WV6, H232R); assay: THP1-Dual KI-hSTING-R232 reporter assay (IRF pathway, secreted Lucia luciferase); assay type: cell-based; conditions: THP1-Dual KI-hSTING-R232 cells, 24 hours; read-out: Reporter assay EC50 (nM) THP-1-R232
T3 construct: host or cells: THP1-Dual KI-hSTING-R232 (from THP1-Dual KO-STING)

hSTING H232 [3] = target: T1, hSTING H232; assay: Surface plasmon resonance, hSTING H232; assay type: binding; conditions: read-out: hSTING H232 SPR (Kd)
hSTING AQ = hSTING AQ (Homo sapiens, UniProt Q86WV6, G230A/H232R/R293Q); assay: Surface plasmon resonance, hSTING AQ; assay type: binding; conditions: read-out: hSTING AQ SPR (Kd)
Sequence of hSTING AQ (Q86WV6 whole entry G230A/H232R/R293Q): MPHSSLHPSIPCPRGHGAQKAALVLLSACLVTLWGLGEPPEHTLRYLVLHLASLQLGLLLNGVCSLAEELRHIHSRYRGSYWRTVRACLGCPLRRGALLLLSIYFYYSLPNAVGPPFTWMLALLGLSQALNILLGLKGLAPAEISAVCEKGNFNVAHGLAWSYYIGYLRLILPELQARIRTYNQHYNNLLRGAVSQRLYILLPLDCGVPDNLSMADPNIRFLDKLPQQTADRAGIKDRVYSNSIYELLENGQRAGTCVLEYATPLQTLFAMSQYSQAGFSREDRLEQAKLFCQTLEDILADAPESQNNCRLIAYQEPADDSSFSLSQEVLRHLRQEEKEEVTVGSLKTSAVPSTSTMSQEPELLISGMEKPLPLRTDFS

T1 sequence (Q86WV6 whole entry): as the sequence (Q86WV6 whole entry G230A/H232R/R293Q) above, with A230G, R232H, Q293R counted along it
T2 sequence (Q86WV6 whole entry R71H/G230A/H232R/R293Q): as the sequence (Q86WV6 whole entry G230A/H232R/R293Q) above, with R71H counted along it
T3 sequence (Q86WV6 whole entry H232R): as the sequence (Q86WV6 whole entry G230A/H232R/R293Q) above, with A230G, Q293R counted along it

With CCn1nc(C)cc1C(=O)Nc1nc2cc(C(N)=O)cc(OC)c2n1C/C=C/Cn1c(NC(=O)c2cc(C)nn2CC)nc2cc(C(N)=O)cc(OCCCN3CCC(c4nnc5n4CCNC5)CC3)c21 [Compound 4, 1-[(E)-4-[5-carbamoyl-2-[(2-ethyl-5-methyl-pyrazole-3-carbonyl)amino]-7-[3-[4-(5,6,7,8-tetrahydro-[1,2,4]triazolo[4,3-a]pyrazin-3-yl)-1-piperidyl]propoxy]benzimidazol-1-yl]but-2-enyl]-2-[(2-ethyl-5-methyl-pyrazole-3-carbonyl)amino]-7-methoxy-benzimidazole-5-carboxamide; 2,2,2-trifluoroacetic acid] the “IL-6 Release Span” value [1] was over 8000 pg/mL, the “IP-10 Release Span” value [1] was over 4000 pg/mL and the EC50 ([1]; read-out: IL-6 Release EC50) was over 100 nM. The EC50 ([1]; read-out: IP-10 Release EC50) was over 100 nM, the “HMGB-1 Release Span” value (NCI-H292 cells) was 11 ng/mL and the EC50 (NCI-H292 cells; Homo sapiens, sandwich ELISA, read-out: HMGB-1 Release EC50) was 7.45 nM. It also gave an EC50 (hSTING H232 [2]) of over 150 nM, an EC50 (hSTING-HAQ haplotype) of 50 to 150 nM and an EC50 (hSTING-R232) of 50 to 150 nM. It also gave a Kd (hSTING H232 [3]) of at most 20 nM and a Kd (hSTING AQ) of at most 20 nM.
